Source: doi:10.1101/2023.03.24.534094v2 (biorxiv, 2023)
Read-outs that look alike come from different tables or passages of the source.

How the values were obtained:
Assay in all cases: biochemical
EphB3 = target: T1, EphB3 (Homo sapiens, UniProt P54753)
T1 sequence (P54753 1-998): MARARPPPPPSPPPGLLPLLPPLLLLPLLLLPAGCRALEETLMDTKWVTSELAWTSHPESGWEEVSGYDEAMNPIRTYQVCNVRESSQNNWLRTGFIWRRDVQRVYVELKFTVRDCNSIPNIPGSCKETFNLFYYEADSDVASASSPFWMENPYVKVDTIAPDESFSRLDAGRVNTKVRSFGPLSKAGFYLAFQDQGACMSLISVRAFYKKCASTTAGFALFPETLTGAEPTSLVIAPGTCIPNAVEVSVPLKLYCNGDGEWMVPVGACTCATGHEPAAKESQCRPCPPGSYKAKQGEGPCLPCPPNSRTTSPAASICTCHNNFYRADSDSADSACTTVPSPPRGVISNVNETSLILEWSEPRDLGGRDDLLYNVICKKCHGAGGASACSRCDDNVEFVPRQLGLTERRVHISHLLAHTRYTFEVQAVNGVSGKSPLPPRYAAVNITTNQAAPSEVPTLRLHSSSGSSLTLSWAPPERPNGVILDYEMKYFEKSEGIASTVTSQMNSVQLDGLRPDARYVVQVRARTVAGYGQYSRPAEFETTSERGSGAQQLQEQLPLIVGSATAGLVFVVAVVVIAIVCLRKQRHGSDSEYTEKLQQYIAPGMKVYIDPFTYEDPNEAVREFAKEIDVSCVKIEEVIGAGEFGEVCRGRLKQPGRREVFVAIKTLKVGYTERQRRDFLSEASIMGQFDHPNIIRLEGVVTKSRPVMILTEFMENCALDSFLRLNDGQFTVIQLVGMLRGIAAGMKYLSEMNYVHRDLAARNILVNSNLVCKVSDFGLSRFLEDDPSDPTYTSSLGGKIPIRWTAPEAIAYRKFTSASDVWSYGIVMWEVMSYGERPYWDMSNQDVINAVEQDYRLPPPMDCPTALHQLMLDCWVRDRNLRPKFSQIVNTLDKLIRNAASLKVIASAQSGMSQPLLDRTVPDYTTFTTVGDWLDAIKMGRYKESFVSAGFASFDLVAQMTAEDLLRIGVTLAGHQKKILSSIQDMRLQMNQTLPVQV

CK2a1 = CK2a1 (Homo sapiens, UniProt P68400)
CK2a1, sequence (P68400 whole entry): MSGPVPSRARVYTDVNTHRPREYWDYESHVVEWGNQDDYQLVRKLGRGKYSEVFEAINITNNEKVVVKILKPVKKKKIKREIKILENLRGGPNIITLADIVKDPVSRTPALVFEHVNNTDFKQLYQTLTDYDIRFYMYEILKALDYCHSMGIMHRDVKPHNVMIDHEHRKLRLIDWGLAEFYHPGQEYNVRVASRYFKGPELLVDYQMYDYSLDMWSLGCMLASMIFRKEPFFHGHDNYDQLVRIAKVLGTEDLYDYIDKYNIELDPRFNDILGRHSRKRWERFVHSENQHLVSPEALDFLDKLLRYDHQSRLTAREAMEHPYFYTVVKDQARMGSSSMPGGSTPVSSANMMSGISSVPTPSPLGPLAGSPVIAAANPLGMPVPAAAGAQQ

TTK = target: T2, TTK (Homo sapiens, UniProt P33981)
T2 sequence (P33981 1-857): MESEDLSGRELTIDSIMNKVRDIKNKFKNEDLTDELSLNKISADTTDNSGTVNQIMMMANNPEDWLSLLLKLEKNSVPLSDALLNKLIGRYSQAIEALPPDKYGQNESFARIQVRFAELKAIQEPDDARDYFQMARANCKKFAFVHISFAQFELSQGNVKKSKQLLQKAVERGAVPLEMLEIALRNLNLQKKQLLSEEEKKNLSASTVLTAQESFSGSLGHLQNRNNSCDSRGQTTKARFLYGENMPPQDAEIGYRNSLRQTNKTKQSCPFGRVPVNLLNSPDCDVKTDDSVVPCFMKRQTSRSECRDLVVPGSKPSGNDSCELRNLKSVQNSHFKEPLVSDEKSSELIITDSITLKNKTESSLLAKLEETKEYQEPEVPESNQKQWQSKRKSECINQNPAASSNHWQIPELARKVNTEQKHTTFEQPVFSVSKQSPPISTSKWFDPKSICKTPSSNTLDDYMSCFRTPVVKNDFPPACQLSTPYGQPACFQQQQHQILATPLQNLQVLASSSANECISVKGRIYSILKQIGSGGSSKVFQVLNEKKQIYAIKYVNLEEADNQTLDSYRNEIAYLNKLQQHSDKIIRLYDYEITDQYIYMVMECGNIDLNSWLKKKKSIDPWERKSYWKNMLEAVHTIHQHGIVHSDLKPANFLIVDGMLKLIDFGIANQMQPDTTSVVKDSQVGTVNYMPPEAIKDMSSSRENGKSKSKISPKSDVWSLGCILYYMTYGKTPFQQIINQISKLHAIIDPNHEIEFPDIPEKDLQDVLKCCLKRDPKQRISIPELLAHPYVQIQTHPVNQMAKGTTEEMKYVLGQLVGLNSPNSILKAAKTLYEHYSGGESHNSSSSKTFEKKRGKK

MAP2K6 = target: T3, MAP2K6 (Homo sapiens, UniProt P52564)
T3 sequence (P52564 1-334): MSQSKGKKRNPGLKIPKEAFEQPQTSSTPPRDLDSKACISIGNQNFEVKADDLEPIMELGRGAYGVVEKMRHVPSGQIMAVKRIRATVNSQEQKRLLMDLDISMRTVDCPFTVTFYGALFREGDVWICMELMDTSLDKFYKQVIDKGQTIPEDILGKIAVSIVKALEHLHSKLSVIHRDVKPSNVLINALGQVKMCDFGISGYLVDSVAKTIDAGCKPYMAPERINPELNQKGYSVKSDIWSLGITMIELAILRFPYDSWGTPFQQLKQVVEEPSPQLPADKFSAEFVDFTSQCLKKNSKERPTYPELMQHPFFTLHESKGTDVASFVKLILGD

MSK1b = MSK1b (Homo sapiens, UniProt O75582)
MSK1b, sequence (O75582 whole entry): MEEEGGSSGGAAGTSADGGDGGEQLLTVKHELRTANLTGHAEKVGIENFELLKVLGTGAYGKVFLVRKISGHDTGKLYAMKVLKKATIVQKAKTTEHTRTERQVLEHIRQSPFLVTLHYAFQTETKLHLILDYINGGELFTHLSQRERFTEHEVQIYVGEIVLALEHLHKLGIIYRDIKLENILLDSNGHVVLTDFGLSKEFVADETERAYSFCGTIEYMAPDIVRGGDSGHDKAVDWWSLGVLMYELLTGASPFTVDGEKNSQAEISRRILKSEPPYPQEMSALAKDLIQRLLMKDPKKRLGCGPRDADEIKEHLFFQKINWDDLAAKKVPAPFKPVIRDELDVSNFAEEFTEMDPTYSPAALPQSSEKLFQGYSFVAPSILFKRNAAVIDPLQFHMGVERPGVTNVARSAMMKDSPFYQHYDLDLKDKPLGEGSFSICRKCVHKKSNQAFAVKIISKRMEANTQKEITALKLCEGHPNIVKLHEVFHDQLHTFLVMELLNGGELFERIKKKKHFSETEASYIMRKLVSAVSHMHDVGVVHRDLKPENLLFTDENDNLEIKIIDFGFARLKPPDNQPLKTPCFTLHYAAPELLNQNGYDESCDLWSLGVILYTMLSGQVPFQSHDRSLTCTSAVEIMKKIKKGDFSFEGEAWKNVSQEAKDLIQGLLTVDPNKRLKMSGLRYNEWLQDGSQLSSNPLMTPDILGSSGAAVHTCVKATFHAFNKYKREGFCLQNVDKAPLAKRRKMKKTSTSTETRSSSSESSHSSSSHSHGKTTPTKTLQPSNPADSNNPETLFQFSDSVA

Erk2 = Erk2 (Homo sapiens, UniProt P28482)
Erk2, sequence (P28482 whole entry): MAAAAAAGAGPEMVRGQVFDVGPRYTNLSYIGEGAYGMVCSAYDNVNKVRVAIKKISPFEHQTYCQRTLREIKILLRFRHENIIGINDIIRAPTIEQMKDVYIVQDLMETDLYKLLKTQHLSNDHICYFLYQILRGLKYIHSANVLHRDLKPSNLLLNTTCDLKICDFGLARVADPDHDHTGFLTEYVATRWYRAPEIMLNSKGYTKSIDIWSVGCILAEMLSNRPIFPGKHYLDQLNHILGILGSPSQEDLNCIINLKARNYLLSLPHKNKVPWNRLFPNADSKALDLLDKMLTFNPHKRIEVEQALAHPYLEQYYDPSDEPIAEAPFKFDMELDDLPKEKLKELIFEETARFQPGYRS

DAPK3 = DAPK3 (Homo sapiens, UniProt O43293)
DAPK3, sequence (O43293 whole entry): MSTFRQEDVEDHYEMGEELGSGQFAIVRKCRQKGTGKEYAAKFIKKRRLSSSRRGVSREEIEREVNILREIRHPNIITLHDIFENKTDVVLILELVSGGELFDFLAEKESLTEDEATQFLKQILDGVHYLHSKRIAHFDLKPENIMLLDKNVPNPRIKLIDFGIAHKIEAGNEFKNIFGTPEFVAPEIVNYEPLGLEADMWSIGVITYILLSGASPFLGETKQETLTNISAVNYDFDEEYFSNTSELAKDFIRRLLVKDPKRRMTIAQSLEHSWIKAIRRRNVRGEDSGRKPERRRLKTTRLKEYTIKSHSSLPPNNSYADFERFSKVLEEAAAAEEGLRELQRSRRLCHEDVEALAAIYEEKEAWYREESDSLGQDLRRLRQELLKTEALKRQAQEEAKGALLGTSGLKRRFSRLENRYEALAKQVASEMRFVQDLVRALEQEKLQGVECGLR

EpHA4 = EpHA4 (Homo sapiens, UniProt P54764)
EpHA4, sequence (P54764 whole entry): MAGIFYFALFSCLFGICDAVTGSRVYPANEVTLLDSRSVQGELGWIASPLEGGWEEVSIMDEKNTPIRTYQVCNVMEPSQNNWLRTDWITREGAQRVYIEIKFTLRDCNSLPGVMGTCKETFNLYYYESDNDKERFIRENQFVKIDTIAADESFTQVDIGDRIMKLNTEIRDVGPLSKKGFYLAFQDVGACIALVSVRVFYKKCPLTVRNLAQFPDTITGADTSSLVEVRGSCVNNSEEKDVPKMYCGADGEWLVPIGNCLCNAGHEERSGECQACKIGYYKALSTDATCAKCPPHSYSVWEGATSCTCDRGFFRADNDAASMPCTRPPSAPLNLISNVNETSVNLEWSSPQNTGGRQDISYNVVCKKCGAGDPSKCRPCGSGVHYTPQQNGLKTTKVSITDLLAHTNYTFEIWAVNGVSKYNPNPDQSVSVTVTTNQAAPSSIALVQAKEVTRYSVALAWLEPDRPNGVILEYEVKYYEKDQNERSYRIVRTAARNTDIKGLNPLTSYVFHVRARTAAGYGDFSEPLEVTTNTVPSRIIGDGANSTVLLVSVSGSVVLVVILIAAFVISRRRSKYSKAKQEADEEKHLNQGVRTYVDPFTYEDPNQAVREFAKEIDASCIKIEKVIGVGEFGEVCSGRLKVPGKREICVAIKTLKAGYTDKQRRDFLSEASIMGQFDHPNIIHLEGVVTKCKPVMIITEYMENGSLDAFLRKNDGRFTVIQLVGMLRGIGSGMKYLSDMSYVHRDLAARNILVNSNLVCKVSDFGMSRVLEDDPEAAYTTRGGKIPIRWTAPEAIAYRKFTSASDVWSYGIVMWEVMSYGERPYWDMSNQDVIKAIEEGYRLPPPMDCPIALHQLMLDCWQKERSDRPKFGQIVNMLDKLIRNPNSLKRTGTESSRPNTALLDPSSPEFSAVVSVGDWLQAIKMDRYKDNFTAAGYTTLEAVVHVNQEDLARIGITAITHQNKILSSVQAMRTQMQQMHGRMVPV

SMILES: CNc1ncc2cc(-c3cc(Br)ccc3Cl)c(=O)n(CCCCN)c2n1 [compound 6, 8-(4-Aminobutyl)-6-(5-bromo-2-chlorophenyl)-2-(methylamino)pyrido[2,3-d]pyrimidin-7(8H)-one]
- ΔTm at 10 µM (EphB3; read-out: dTm 6): 3.5 °C
- ΔTm at 10 µM (CK2a1; read-out: dTm 6): 0.2 °C
- ΔTm at 10 µM (TTK; read-out: dTm 6): 0.2 °C
- ΔTm at 10 µM (MAP2K6; read-out: dTm 6): 1.4 °C
- ΔTm at 10 µM (MSK1b; read-out: dTm 6): 0.3 °C
- ΔTm at 10 µM (Erk2; read-out: dTm 6): 0 °C
- ΔTm at 10 µM (DAPK3; read-out: dTm 6): -0.2 °C

SMILES: CNc1ncc2cc(-c3cc(F)ccc3F)c(=O)n(CCCCN)c2n1 [compound 5, 8-(4-Aminobutyl)-6-(2,5-difluorophenyl)-2-(methylamino)pyrido[2,3-d]pyrimidin-7(8H)-one]
- ΔTm at 10 µM (EphB3; read-out: dTm MR22 (5)): 3.3 °C
- ΔTm at 10 µM (CK2a1; read-out: dTm MR22 (5)): 0.4 °C
- ΔTm at 10 µM (TTK; read-out: dTm MR22 (5)): -2.6 °C
- ΔTm at 10 µM (MAP2K6; read-out: dTm MR22 (5)): 1 °C
- ΔTm at 10 µM (EpHA4; read-out: dTm MR22 (5)): 3 °C
- ΔTm at 10 µM (MSK1b; read-out: dTm MR22 (5)): 1.5 °C
- ΔTm at 10 µM (Erk2; read-out: dTm MR22 (5)): -3.7 °C
- ΔTm at 10 µM (DAPK3; read-out: dTm MR22 (5)): 0.5 °C

SMILES: CNc1ncc2cc(-c3ccc(-c4cccc(C)n4)cc3Cl)c(=O)n(CC3OCC(N)CO3)c2n1 (stereo not shown) [compound 2, G-5555]
- dTm G-5555 (2) (EphB3; 10 µM, binder): 1.7 °C
- dTm G-5555 (2) (CK2a1; 10 µM, binder): 0.1 °C
- dTm G-5555 (2) (TTK; 10 µM, binder): 1.5 °C
- dTm G-5555 (2) (MAP2K6; 10 µM, binder): 4.4 °C
- dTm G-5555 (2) (MSK1b; 10 µM, binder): 2.0 °C
- dTm G-5555 (2) (Erk2; 10 µM, binder): 1.4 °C
- dTm G-5555 (2) (DAPK3; 10 µM, binder): 0.5 °C

SMILES: CNc1ncc2cc(-c3ccccc3Cl)c(=O)n(CCCCN)c2n1 [compound 4, 8-(4-Aminobutyl)-6-(2-chlorophenyl)-2-(methylamino)pyrido[2,3-d]pyrimidin-7(8H)-one]
- ΔTm at 10 µM (EphB3; read-out: dTm MR21 (4)): 6 °C
- ΔTm at 10 µM (CK2a1; read-out: dTm MR21 (4)): -0.4 °C
- ΔTm at 10 µM (TTK; read-out: dTm MR21 (4)): 0.9 °C
- ΔTm at 10 µM (MAP2K6; read-out: dTm MR21 (4)): 3.1 °C
- ΔTm at 10 µM (EpHA4; read-out: dTm MR21 (4)): 4.9 °C
- ΔTm at 10 µM (MSK1b; read-out: dTm MR21 (4)): 2.1 °C
- ΔTm at 10 µM (Erk2; read-out: dTm MR21 (4)): 1 °C

SMILES: CNc1ncc2cc(-c3cc(Br)ccc3Cl)c(=O)n(C[C@H]3OC[C@H](N)CO3)c2n1 [compound 7, 8-(((2r,5r)-5-Amino-1,3-dioxan-2-yl)methyl)-6-(5-bromo-2-chlorophenyl)-2-(methylamino)pyrido[2,3-d]pyrimidin-7(8H)-one]
- ΔTm at 10 µM (EphB3; read-out: dTm 7): 2.5 °C
- ΔTm at 10 µM (CK2a1; read-out: dTm 7): 0.4 °C
- ΔTm at 10 µM (TTK; read-out: dTm 7): -0.2 °C
- ΔTm at 10 µM (MAP2K6; read-out: dTm 7): 0.9 °C
- ΔTm at 10 µM (EpHA4; read-out: dTm 7): 3.6 °C
- ΔTm at 10 µM (MSK1b; read-out: dTm 7): 1.1 °C
- ΔTm at 10 µM (Erk2; read-out: dTm 7): 0 °C
- ΔTm at 10 µM (DAPK3; read-out: dTm 7): -0.4 °C
